A short description of data set [1]: Evaluation of solubility: temperature of toluene required to dissolve the compound at 0.4 mass %. Format: physicochemical. The settings on record: concentration of 0.4 mass %.
The nature of data set [2]: Storage stability of organic semiconductor material: carrier mobility after storage in air. The settings on record: deposited transistor stored for 9 days in air. Format: physicochemical. The method, then: An organic thin film transistor was obtained in the same manner as in Example 17, except that pentacene (see the following formula) was used as the material for forming the organic semiconductor layer instead of the compound (A-3).
The field-effect mobility μ of holes in the organic thin film transistor was calculated in the same manner as in Example 17, and found to be […]. The carrier mobility calculated after storing the organic thin film transistor for 9 days in air was […].

The structures appear in SMILES notation.

Turning to `CCCCCCCCCCCCc1ccc2c(c1)sc1c2ccc2c1ccc1c3ccc(CCCCCCCCCCCC)cc3sc12` [Comparative compound (1)], the “Dissolution temperature (° C.) in toluene” value (“Dissolution temperature” below) in data set [1] worked out at 90 °C. As for `c1ccc2c(c1)sc1c2ccc2c1ccc1c3ccccc3sc12` [Comparative compound (2)], the “Dissolution temperature” value in data set [1] is “Insoluble”; in data set [1] (listed as comparative compound (2)), “not sufficiently dissolved”.

Regarding `CCCCCc1ccc2c(c1)sc1c2ccc2c1ccc1c3ccc(CCCCC)cc3sc12` [Compound A-3], in data set [2], the “carrier mobility after storage” value is reported as 1.1 cm^2/Vs and the “deterioration in carrier mobility on storage” value was “a deterioration in carrier mobility was not observed”. In addition, in data set [1], the “Dissolution temperature” value came out at 80 °C. As to `c1ccc2cc3cc4cc5ccccc5cc4cc3cc2c1` [pentacene], in data set [2], the “carrier mobility after storage” value is on record as 1.3×10^3 cm^2/Vs.

Values taken from patent US20140061616A1, “ORGANIC SEMICONDUCTOR MATERIAL, COATING LIQUID CONTAINING THE MATERIAL, AND ORGANIC THIN FILM TRANSISTOR” (IDEMITSU KOSAN CO., LTD., priority 2010, published 2014).
